{
  "source": "patent US20020049157A1",
  "about": "“Use of proteasome inhibitors for treating cancer, inflammation, autoimmune disease, graft rejection and septic shock” (priority 1998, published 2002)",
  "key": {"[1]": {"tested_on": "BALB/c mouse spleen cells", "experiment": "Anti-CD3-stimulated T cell proliferation (3H-thymidine)", "type": "cell-based", "conditions": "anti-CD3 50 ng/ml; pulsed 48 h, harvested 64 h", "method": "The cells were pulsed with ^3H-thymidine at 48 h and harvested at 64 h after the culture."}, "islet allograft": {"tested_on": "islet allograft", "experiment": "Mouse islet allograft in streptozocin-induced diabetes", "type": "in vivo", "conditions": "1 mg/kg/day i.p. for 16 days, then 0.5 mg/kg twice a week until day 60", "method": "C57BL/6 mice were treated with 250 mg/kg streptozocin and used as islet graft recipients when their blood glucose reached […] from BALB/c mice were isolated after collagenase digestion followed by Ficoll gradient separation. The islets were cultured overnight, and transplanted into the peritoneal cavity of the diabetic C57BL/6 recipients (500-600 islets/recipient). […] The blood glucose of the mice was measured daily and the means+SDs are shown. […] The mice were sacrificed on day 60, or when their blood glucose reached […]."}, "[2]": {"tested_on": "Streptococcus cell wall-induced polyarthritis", "conditions": "in vivo, cited from earlier work"}, "heart allograft": {"tested_on": "heart allograft", "type": "in vivo, mouse", "method": "BALB/c mice (H-2^d) were used as heart donors and C57BL/6 mice (H-2^b) as recipients. […] Group 2 was given 0.65 mg/kg/day; group 3 was given 1.0 mg/kg/day for 4 days, and the dose was then reduced to 0.5 mg/kg/day for 12 days. The graft survival days, mean survival time (MST) and the p value (unpaired Student's test) compared with the control group was presented.\nThe applicant then used DPBA in treating allograft rejection in a mouse model. BALB/c (H-2^d) mice were used as donors and C57BL/6 (H-2^b) was used as recipients. Heterotropic heart transplantation was performed as described in our previous publication (Chen et al., 1996, supra). […] With this regimen, the MST is more than 22.8+9.8 days and has a tendency of being better than the first group.\nProteasome inhibitors when added at the late G1 phase can suppress proliferation and even induce apoptosis of the activated T cells. […] This possibility was tested in mouse heart transplantation model. The recipients were given no immunosuppressants for 72 h after the transplantation to allow the rejection response to proceed. […] This new drug will be especially useful in patients who are resistant to commonly used immunosuppressants such as CyA, azathioprine, and glucocorticoids."}, "proteasome": {"tested_on": "proteasome", "conditions": "for repression of chymotrypsin-like activity in the PBMC: RAPA at 10 nM", "description": "Human PBMC were cultured in the absence or presence of 2 μg/ml PHA or 10 nM RAPA for 16 h-70 h as indicated. The cells were then harvested, and the chymotrypsin-like activity of whole cells lysates was assayed in the absence or presence of 20 μM proteasome inhibitor LAC. The data are presented as arbitrary units of fluorescence intensity per 20 μg lysate protein. The experiments were repeated three times and a representative one is shown. Samples are in duplicate and the mean±SD is shown. (A) Total chymotrypsin-like activity in the lysate of PBMC. (B) Lactacystin-inhibitable chymotrypsin-like activity in the lysate of 70 h PBMC. Nine micrograms of 20S proteasome were used as positive controls for the inhibitory effect of LAC at 10 μM and 20 μM. LAC was always added to the lysates during the proteinase assay 15 min before the addition of the substrate. The solid bars represent the activity in the presence of LAC. The net proteasome activities are calculated as the total activity minus the remaining activity after the LAC addition.\nPBMC lysates were assayed for their proteinase activity at pH 8.2 which favors the proteasome activity, using a chymotrypsin substrate as a representative parameter.\nPBMC were cultured with or without PHA (2 μg/ml) and RAPA (10 nM). After 16 h-70 h, the cells were harvested and sonicated in 300 μl PBS on ice for 40 sec. Twenty micrograms of protein per sample from the cleared lysates were supplemented to 100 μl with 0.1 M Tris buffer (pH 8.2). A proteasome-specific inhibitor lactacystin (Omura et al., 1991, supra; Fentenay et al., 1995, supra) was added at a final concentration of 10 nM in some samples as indicated. The samples were incubated on ice for 15 min, and fluorogenic chymotrypsin substrate sLLVY-MCA was then added at a final concentration of 10 nM. The 20S proteasome, which was prepared as previously described (Friguet et al, 1994, J. Biol. Chem. 269:21639), was used as a positive control in place of cell lysates. The samples were incubated at 37° C. for 15 min and the reaction was terminated by adding 4 μl 2.5 M HCl. The samples were then diluted to 2 ml with 0.1 M Tris pH8.2, and measured for their fluorescent intensity by a PTI fluorometer (Photo Technology International, South Brunswick, N.J.). The excitation wavelength was 380 nm, and the emission wavelength 440 mn."}, "Jurkat and Namalwa cells": {"tested_on": "Jurkat and Namalwa cells", "experiment": "Apoptosis induction in Jurkat and Namalwa cells", "type": "cell-based"}, "Jurkat cells [3]": {"tested_on": "Jurkat cells", "experiment": "DNA fragmentation (DNA laddering) in Jurkat cells", "type": "cell-based", "conditions": "LAC 6 μM; caspase inhibitor 0.4 μM to 33.3 μM; 6 h", "method": "Tonsillar T cells (A, B, and D) and Jurkat cells (C and E) were treated with LAC (10 μM for T cells and 6 μM for Jurkat cells). LAC was added at the beginning of the culture or 40 h after T cell activation as indicated. The cells were harvested at the time points as shown. They were evaluated for their viability with trypan blue exclusion (A, B, and C), and for their mode of cell death according to DNA fragmentation (D and E).\nJurkat cells were treated with LAC (6 μM) in the absence or presence of different concentrations of zVAD.fms (0.4 μM to 33.3 μM) for 6 h. The cells were harvested and their DNA was analyzed by a DNA fragmentation assay according to DNA laddering.\nWe next employed DNA laddering to study the mode of cell death caused by LAC, and the result of this experiment also reflected the degree of cell death after different treatments. […] After 24 h of LAC treatment, the ladders became less discrete, and this probably reflected further DNA breakdown.\nThe assay was performed according to a protocol described by Liu et al (Liu et al., 1997, Cell. 89:175) with some modifications. Briefly, 2-6 million cells were re-suspended in 50 μl PBS followed by 300 μl lysis buffer (100 mM Tris-HCl, pH 8.0, 5 mM EDTA, 0.2 M NaCl. 0.2% w/v SDS, and 0.2 mg/ml proteinase K). After overnight incubation at 37° C., 350 μl of 3M NaCl was added to the mixture and cell debris was removed by centrifugation at 13000 g for 20 min at room temperature. DNA in the supernatant was precipitated with an equal volume of 100% ethanol. The pellet was washed with cold 70% ethanol and then dissolved in 20 μl of TE containing 0.2 mg/ml RNase A. After incubation at 37° C. for 2 h, the DNA was resolved on 2% agarose gel and visualized with ethidium bromide staining."}, "Jurkat cells [4]": {"tested_on": "Jurkat cells", "experiment": "Respiration (O2 consumption) of Jurkat cells, oxygen electrode", "type": "cell-based", "conditions": "LAC for 4 h; 100 μM Cytochrome C", "from_the_text": "The function of Complex I of digitonin (Dig)-permeated Jurkat cells was blocked by rotenone (Rot), and the respiration was resumed by adding succinate (Suc), which provides electrons to Complex II directly and thus bypasses Complex I. The maximal respiration was achieved by adding CCCP (carbonyl cyanide m-chlorophenylhydrazone), which uncouples the oxidation and phosphorylation. The respiration could be blocked by antimycin A (Ant), which inhibits […]. Curves 1 and 6 represent positive controls of rat kidney mitochondria. Curves 2 and 5 represent normals untreated Jurkat cells. Curves 3 and 4 represent Jurkat cells treated with lactacystin (6 μM) for 2 h and 4 h, respectively.\nComplex III in the respiration chain was blocked at Complex III antimycin (Ant), and the electron flow was resumed by addiind ascorbate (Asc) and TMPD (tetramethyl-p-phenyl-enediamine).\nThe assay system is identical to that described in FIG. 16. Jurkat cells were treated with LAC for 4 h (curve 3). The decoupling reagent used in this experiment to achieve maximal respiration is FCCP (carbonylcyanide-p-trifluoromethoxyphenylhydrazone).\nThe Jurkat Cells (JC) (30×10^6/ml) or rat kidney proximal tubules mitochondria (RKM) (0.5 mg of protein/ml) were incubated in 1 ml measuring chamber at 37° C. in a respiration buffer containing 200 mM sucrose, 5 mM MgCl2, 5 mM KH2PO4, and 30 mM HEPES-Tris (pH 7.5). During respiration experiments following substrates and inhibitors were used: 0.005% Digitonine (Dig); 10 mM Succinate (Suc); 1 mM Ascorbate (Asc); 0.4 mM tetramethyl-p- phenylenediamine (TMPD); 1 μM CCCP, 1 μM FCCP; 0.1 μM Rotenone (Rot); 50 nM Antimycin A (Anti); 1 mM KCN; 100 μM Cytochrome C (Cyt C). The respiration rate of the Jurkat Cells and mitochondria was measured polarographically with a Clarke oxygen electrode (Yellow Springs Instruments, Yellow Springs, Ohio, U.S.A.) using 1 ml thermojacketed chamber. Oxygen concentration was calibrated with air-saturated buffer using Hypoxanthine—Xanthine Oxidase—Catalase system (“chemical zero”). Oxygen consumption was continuously recorded using a “MacLab/8” (Analog Digital Instruments, U.S.A.) connected to a Macintosh SE computer and the MacLab Chart v.3.3.4 software. Rates of oxygen consumption are expressed as ng-atoms of oxygen/min."}},
  "note": "Where two headings read alike, the source gives them in different places. Peptide text beside a SMILES is read from it. * marks the point of attachment. Cbz = O=C(OCc1ccccc1)*; CH2F = FC*",
  "data": [
    {"compound": "CC(C)C[C@H](NC(=O)[C@H](Cc1ccccc1)NC(=O)c1cnccn1)B(O)O", "note": "[DPBA, Pyz-Phe-boroLeu]", "values": [
      {"measurement": "IC50", "setting": "[1]", "result": "~18", "unit": "nM"},
      {"measurement": "duration of normal function of allogeneic islet graft", "setting": "islet allograft", "result": "more than 60 days"},
      {"measurement": "glucose elevation consequent to islet rejection", "setting": "islet allograft", "result": "inhibits the glucose elevation consequent to islet rejection"},
      {"measurement": "toxicity", "setting": "[2]; rat", "result": "without apparent toxicity"},
      {"measurement": "inhibition of Streptococcus cell wall-induced polyarthritis", "setting": "[2]; rats", "result": "effectively inhibit"},
      {"measurement": "MST (mean survival time of heart allograft)", "setting": "heart allograft; 0.65 mg/kg/day i.p. for 16 days", "result": "more than 26.2+13 days"},
      {"measurement": "MST (mean survival time of heart allograft)", "setting": "heart allograft; 1 mg/kg/day i.p. day 1-4, then 0.5 mg/kg/day i.p. day 5-16", "result": "more than 22.8+9.8 days"},
      {"measurement": "MST (ongoing rejection)", "setting": "heart allograft; 1 mg/kg/day i.p. for 4 days starting on day 3", "result": "more than 13.2+1.78 days"},
      {"measurement": "appearance of the mice during or after the drug administration", "setting": "heart allograft; mouse, in vivo, ip", "result": "appear healthy"},
      {"measurement": "graft survival (ongoing rejection)", "setting": "heart allograft; short-term treatment between day 3 and 6", "result": "more than 13 days"}
    ]},
    {"compound": "CO[C@H]1C[C@@H]2CC[C@@H](C)[C@@](O)(O2)C(=O)C(=O)N2CCCC[C@H]2C(=O)O[C@H]([C@H](C)C[C@@H]2CC[C@@H](O)[C@H](OC)C2)CC(=O)[C@H](C)/C=C(\\C)[C@@H](O)[C@@H](OC)C(=O)[C@H](C)C[C@H](C)/C=C/C=C/C=C/1C", "note": "[RAPA, Rapamycin]", "values": [
      {"measurement": "net proteasome activity", "setting": "proteasome; PHA plus RAPA-treated cells, 70 h, total minus activity remaining after LAC", "result": "113.2×10^3 units/20 μg protein"},
      {"measurement": "inhibition of the augmented proteasome activity in the PHA-treated PBMC", "setting": "proteasome; RAPA 10 nM, 70 h", "result": 44.7, "unit": "%"},
      {"measurement": "inhibition of the total proteasome activity in the PHA-treated PBMC", "setting": "proteasome; RAPA 10 nM, 70 h", "result": 33.6, "unit": "%"},
      {"measurement": "repression of chymotrypsin-like activity in the PBMC", "setting": "proteasome; 40 h after PHA stimulation", "result": 23.1, "unit": "%"},
      {"measurement": "repression of chymotrypsin-like activity in the PBMC", "setting": "proteasome; 70 h after PHA stimulation", "result": 41.1, "unit": "%"}
    ]},
    {"compound": "CN[C@@H]1C[C@H]2O[C@@](C)([C@@H]1OC)n1c3ccccc3c3c4c(c5c6ccccc6n2c5c31)C(=O)NC4", "note": "[staurosporine]", "values": [
      {"measurement": "induction of apoptosis", "setting": "Jurkat and Namalwa cells", "result": "could equally induce apoptosis"}
    ]},
    {"compound": "COC(=O)C[C@H](NC(=O)[C@H](C)NC(=O)[C@@H](NC(=O)OCc1ccccc1)C(C)C)C(=O)CF", "note": "[zVAD.fms, zVAD.fmk] (Cbz-Val-Ala-Asp(OMe)-CH2F)", "values": [
      {"measurement": "effect on LAC-induced DNA fragmentation", "setting": "Jurkat cells [3]", "result": "inhibitory effect on DNA fragmentation that is concentration responsive"}
    ]},
    {"compound": "cytochrome c", "values": [
      {"measurement": "respiration of LAC-treated cells after adding exogenous cytochrome c", "setting": "Jurkat cells [4]", "result": "the respiration resumed to a rate similar to that of untreated Jurkat cells and mitochondria"}
    ]}
  ]
}
